Values after ≈ are worked out from the molar mass of the structure shown. Where two headings read alike, the source gives them in different places. Some results are limits rather than exact numbers.

Test in all cases: Minimum inhibitory concentration (MIC) against bacteria
Holding throughout (type): cell-based

Test [1] deals with Citrobacter freundii GN 346. Particulars: GN346. An excerpt: (§1) In an antimicrobial spectrum, a minimum inhibitory concentration (MIC) against a bacterium is expressed in terms of μg/ml.
Test [2] relates to Enterobacter cloacae GN 336. As to conditions: GN336.
Excerpt: as §1

Test [3] concerns Escherichia coli, 0205.
Excerpt: as §1

In test [4] the test system is Escherichia coli, NIHJ.
Excerpt: as §1

Test [5] concerns Klebsiella pheumoniae, ATCC 10031.
Excerpt: as §1

The subject of test [6] is Proteus mirabilis.
Excerpt: as §1

Test [7] has as its system Proteus morganii 0239.
Excerpt: as §1

Test [8] concerns Proteus rettgeri, ACR.
Excerpt: as §1

Test [9] has as its system Salmonella enteritidis gaertner.
Excerpt: as §1

The subject of test [10] is Staphylococcus aureus, ATCC 6538 P.
Excerpt: as §1

The subject of test [11] is Staphylococcus aureus, ATCC MS 27.
Excerpt: as §1

The mark [12] stands for this setting: Citrobacter freundii GN 346, read-out: MIC.
Setting [13] is: Enterobacter cloacae GN 336, read-out: MIC.
[14] abbreviates: ATCC10031, Klebsiella pheumoniae, ATCC 10031, read-out: MIC.
The mark [15] stands for this setting: Morganella morganii, Proteus morganii 0239, read-out: MIC.
The mark [16] stands for this setting: Providencia rettgeri, Proteus rettgeri, ACR, read-out: MIC.
Setting [17] is: Salmonella enterica, Salmonella enteritidis gaertner, read-out: MIC.
Setting [18] is: ATCC6538, ATCC 6538 P, read-out: MIC.
Setting [19] is: ATCCMS27, ATCC MS 27, read-out: MIC.

Take `Cn1nnnc1SCC1=C(C(=O)O)N2C(=O)C(NC(=O)C[S+]([O-])c3cccs3)[C@H]2SC1` (stereo partly drawn) [A, 7-(2-Thienylsulfinylacetamido)-3-(1-methyl-1H-tetrazol-5-ylthiomethyl)-3-cephem-4-carboxylic acid]: the MIC in [1] (setting [12]) was more than 100 µg/mL; in test [2] (setting [13]), 100 µg/mL (≈ 200 µM); in test [3] (read-out: MIC), 25 µg/mL (≈ 49.9 µM); in test [4] (read-out: MIC) it was 0.8 µg/mL (≈ 1.6 µM); in [5] (setting [14]), not above 0.2 µg/mL; in test [6] (read-out: MIC), 0.8 µg/mL (≈ 1.6 µM). For the same molecule, the MIC in test [7] (setting [15]) was more than 100 µg/mL; in test [8] (setting [16]) it was 25 µg/mL (≈ 49.9 µM); in test [9] (setting [17]), not above 0.2 µg/mL; in test [10] (setting [18]) it was not above 0.2 µg/mL; in test [11] (setting [19]), 0.4 µg/mL (≈ 0.799 µM).

Regarding `Cc1nnc(SCC2=C(C(=O)O)N3C(=O)[C@@H](NC(=O)Cn4cnnn4)[C@H]3SC2)s1` [Cefazolin, 7-(1H-Tetrazol-1-ylacetamido)-3-(5-methyl-1,3,4-thiadiazol-2-ylthiomethyl)-3-cephem-4-carboxylic acid], the MIC in test [1] (setting [12]) is more than 100 µg/mL; in [2] (setting [13]), more than 100 µg/mL; in test [3] (read-out: MIC) it was 12.5 µg/mL (≈ 27.5 µM); in test [4] (read-out: MIC), 1.6 µg/mL (≈ 3.52 µM); in test [5] (setting [14]), 1.6 µg/mL (≈ 3.52 µM); in test [6] (read-out: MIC) it was 3.1 µg/mL (≈ 6.82 µM). Besides, the MIC was more than 100 µg/mL in test [7] (setting [15]); more than 100 µg/mL in [8] (setting [16]); 1.6 µg/mL (≈ 3.52 µM) in test [9] (setting [17]); not above 0.2 µg/mL in test [10] (setting [18]); 0.8 µg/mL (≈ 1.76 µM) in test [11] (setting [19]).

For the molecule `CC(=O)OCC1=C(C(=O)O)N2C(=O)[C@@H](NC(=O)Cc3cccs3)[C@H]2SC1` [Cephalothin, 7-(2-Thienylacetamido)-3-acetoxymethyl-3-cephem-4-carboxylic acid], the MIC was more than 100 µg/mL in [1] (Citrobacter freundii); more than 100 µg/mL in test [2] (Enterobacter cloacae); more than 100 µg/mL in test [3] (read-out: MIC); 6.3 µg/mL (≈ 15.9 µM) in test [4] (read-out: MIC); 0.8 µg/mL (≈ 2.02 µM) in [5] (Klebsiella, ATCC10031); 6.3 µg/mL (≈ 15.9 µM) in [6]. In addition, the MIC in test [7] (Morganella morganii, 0239) was more than 100 µg/mL; in [8] (Providencia rettgeri), more than 100 µg/mL; in test [9] (Salmonella enterica, ENTERITIDIS), 1.6 µg/mL (≈ 4.04 µM); in [10] (ATCC6538) it was not above 0.2 µg/mL; in [11] (ATCCMS27), 0.4 µg/mL (≈ 1.01 µM).

For the molecule `CO[C@@]1(NC(=O)C[S+]([O-])c2cccs2)C(=O)N2C(C(=O)O)=C(CSc3nnnn3C)CS[C@@H]21` (stereo partly drawn) [Example 21, 7β-(2-Thienylsulfinylacetamido)-7α-methoxy-3-(1-methyl-1H-tetrazol-5-ylthiomethyl)-3-cephem-4-carboxylic acid], the MIC in test [1] (Citrobacter freundii) is 100 µg/mL (≈ 188 µM); in test [2] (Enterobacter cloacae), 25 µg/mL (≈ 47.1 µM); in [3] it was 3.1 µg/mL (≈ 5.84 µM); in [4], 1.6 µg/mL (≈ 3.02 µM); in [5] (Klebsiella pheumoniae, ATCC 10031) it was not above 0.2 µg/mL; in test [6] it was 0.8 µg/mL (≈ 1.51 µM). In addition, the MIC in test [7] (Proteus morganii 0239) is 12.5 µg/mL (≈ 23.6 µM); in test [8] (Proteus rettgeri, ACR), 6.3 µg/mL (≈ 11.9 µM); in [9] (Salmonella enteritidis gaertner), not above 0.2 µg/mL; in test [10] (ATCC 6538 P), 0.8 µg/mL (≈ 1.51 µM); in [11] (ATCC MS 27), 0.8 µg/mL (≈ 1.51 µM).

On to `CO[C@@]1(NC(=O)C[S+]([O-])c2cccs2)C(=O)N2C(C(=O)[O-])=C(CSc3nnnn3C)CS[C@@H]21.[Na+]` (stereo partly drawn) [Example 23, sodium 7β-(2-thienylsulfinylacetamido)-7α-methoxy-3-(1-methyl-1H-tetrazol-5-ylthiomethyl)-3-cephem-4-carboxylate], for which the MIC in [3] (text of Example 23 (sodium salt)) turned out to be 3.1 µg/mL.

(Values after patent publication US4229573A, “7α-Methoxycephalosporin derivatives” (Asahi Kasei Kogyo Kabushiki Kaisha, priority 1977, dated 1980).)
